From ChEMBL document CHEMBL4699602, “Stapled and Xenopus Glucagon-Like Peptide 1 (GLP-1)-Based Dual GLP-1/Gastrin Receptor Agonists with Improved Metabolic Benefits in Rodent Models of Obesity and Diabetes” (J Med Chem, 2020)
Active and inactive are the calls of the source. No cut-off for these calls is given here. Where a SMILES comes first, the peptide text is derived from it.

Assays:
[1] = target: T1, Glucagon-like peptide 1 receptor (Homo sapiens, UniProt P43220); experiment: Ratio of EC50 for agonist activity at human GLP-1R expressed in HEK293 cells in presence of 4.4% HSA to EC50 for agonist activity at human GLP-1R expressed in HEK293 cells in presence of 0% HSA; format: cell-based
[2] = system: Mus musculus; experiment: Reduction in body weight in C57BL/6 mouse model of diet induced obesity at 25 nmol/kg, sc BID for 1 week relative to control; format: functional; set-up: scale not given: the % may be the effect or the level left; conditions: time 1 weeks
[3] = system: Mus musculus; experiment: Reduction in food intake in C57BL/6 mouse model of diet induced obesity at 25 nmol/kg, sc BID for 1 week relative to control; format: functional, organism-based; conditions: time 1.0 weeks
[4] = system: Mus musculus; experiment: Hypoglycemic activity in non-fasted db/db mouse assessed as decrease in blood glucose concentration at 25 nmol/kg, sc by OGTT method; format: functional, organism-based
[5] = target: T1, Glucagon-like peptide 1 receptor; experiment: Agonist activity at human GLP-1R expressed in HEK293 cells assessed as stimulation of cAMP accumulation incubated for 20 mins in presence of 4.4% HSA; format: functional, cell-based
[6] = target: T1, Glucagon-like peptide 1 receptor; experiment: Agonist activity at human GLP-1R expressed in HEK293 cells assessed as stimulation of cAMP accumulation incubated for 20 mins in presence of 0% HSA; format: functional, cell-based
[7] = target: serum albumin (Homo sapiens, UniProt P02768); experiment: Binding affinity to human serum albumin in PBS pH 7.4 at 100 ug/mL incubated for 2 hrs by LC-MS/MS analysis relative to control; format: ADME; conditions: at 100 µg/mL, read-out: PB (converted)
[8] = system: Mus musculus; experiment: Reduction in fasted hyperglycemia in C57BL/6 mouse model of diet induced obesity at 25 nmol/kg, sc BID for 1 week relative to control; format: functional, organism-based; conditions: time 1.0 weeks

T1 sequence (P43220 whole entry): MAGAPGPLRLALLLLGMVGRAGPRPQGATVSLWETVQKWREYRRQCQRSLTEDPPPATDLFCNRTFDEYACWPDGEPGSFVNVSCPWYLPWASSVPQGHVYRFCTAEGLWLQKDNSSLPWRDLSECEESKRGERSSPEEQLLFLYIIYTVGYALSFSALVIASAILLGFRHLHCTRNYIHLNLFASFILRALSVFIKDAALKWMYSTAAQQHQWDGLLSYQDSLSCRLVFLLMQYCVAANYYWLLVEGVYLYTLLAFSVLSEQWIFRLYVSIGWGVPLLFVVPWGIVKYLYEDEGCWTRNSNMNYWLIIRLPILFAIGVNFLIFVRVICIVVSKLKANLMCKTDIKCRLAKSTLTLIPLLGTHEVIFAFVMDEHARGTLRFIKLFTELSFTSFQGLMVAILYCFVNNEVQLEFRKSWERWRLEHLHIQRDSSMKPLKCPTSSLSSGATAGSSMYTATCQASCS
Chain of serum albumin (P02768 whole entry): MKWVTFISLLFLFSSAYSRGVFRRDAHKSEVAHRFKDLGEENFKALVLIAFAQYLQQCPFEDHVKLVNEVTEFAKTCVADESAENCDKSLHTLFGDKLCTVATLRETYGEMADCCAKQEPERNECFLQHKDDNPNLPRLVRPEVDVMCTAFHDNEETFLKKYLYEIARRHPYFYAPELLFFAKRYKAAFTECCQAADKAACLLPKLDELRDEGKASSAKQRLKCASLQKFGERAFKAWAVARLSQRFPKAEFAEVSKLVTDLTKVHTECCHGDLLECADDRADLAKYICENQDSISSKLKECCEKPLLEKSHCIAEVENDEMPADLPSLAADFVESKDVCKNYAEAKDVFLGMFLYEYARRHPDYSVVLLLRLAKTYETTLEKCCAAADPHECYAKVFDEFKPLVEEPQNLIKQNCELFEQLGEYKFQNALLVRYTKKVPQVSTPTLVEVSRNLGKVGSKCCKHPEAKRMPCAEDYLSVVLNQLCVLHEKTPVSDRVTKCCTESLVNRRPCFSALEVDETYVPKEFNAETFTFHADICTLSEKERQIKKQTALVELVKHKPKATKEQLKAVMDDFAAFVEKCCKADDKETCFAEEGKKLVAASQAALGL

Compound: CCCCCCCCCCCCCCCC(=O)NCCCCCCNC(=O)C1CCCCNC(=O)CCN2C(=O)CC(SC[C@H](NC(=O)[C@H](CCCCN)NC(=O)[C@H](C)NC(=O)[C@H](C)NC(=O)[C@H](CCC(=O)O)NC(=O)[C@H](CCC(=O)O)NC(=O)[C@H](CCC(=O)O)NC(=O)[C@H](CC(C)C)NC(=O)[C@H](Cc3ccc(O)cc3)NC(=O)[C@H](CCC(=O)O)NC(=O)[C@@H](NC(=O)[C@@H](NC(=O)[C@H](CC(=O)O)NC(=O)[C@H](CC(N)=O)NC(=O)[C@@H](NC(=O)[C@H](Cc3ccc(O)cc3)NC(=O)[C@@H](NC(=O)CNC(=O)[C@H](CCC(=O)O)NC(=O)C(C)(C)NC(=O)[C@@H](N)Cc3c[nH]cn3)[C@@H](C)O)[C@@H](C)O)C(C)C)[C@@H](C)O)C(=O)N[C@@H](Cc3ccccc3)C(=O)N[C@@H]([C@@H](C)CC)C(=O)N[C@@H](CCC(=O)O)C(=O)N[C@@H](Cc3c[nH]c4ccccc34)C(=O)N[C@@H](CC(C)C)C(=O)N[C@@H]([C@@H](C)CC)C(=O)N[C@H](C(=O)NCC(=O)N[C@@H](CCCCN)C(=O)N3CCC[C@H]3C(=O)N[C@@H](CO)C(=O)N[C@@H](CO)C(=O)NCC(=O)N[C@@H](C)C(=O)N3CCC[C@H]3C(=O)N3CCC[C@H]3C(=O)N3CCC[C@H]3C(=O)N[C@@H](CO)C(N)=O)CSC3CC(=O)N(CCC(=O)N1)C3=O)C2=O (stereo partly drawn) (HELM PEPTIDE1{H.[Aib].E.G.T.Y.T.N.D.V.T.E.Y.L.E.E.E.A.A.K.C.F.I.E.W.L.I.C.G.K.P.S.S.G.A.P.P.P.S.[am]}|CHEM1{[CCCCCCCCCCCCCCCC(=O)NCCCCCCNC(=O)C(CCCCNC(=O)CCN1C(=O)CC([*:1])C1=O)NC(=O)CCN1C(=O)CC([*:2])C1=O]}$PEPTIDE1,CHEM1,21:R3-1:R1|PEPTIDE1,CHEM1,28:R3-1:R2$$$V2.0)
- Ratio EC50 [1]: 24.1
- Activity [2]: 15.2%
- Activity [3]: Active
- Activity [4]: Active
- EC50 [5]: 1.3 nM
- EC50 [6]: 0.054 nM
- fraction unbound at 2 h, 100 ug/mL [7]: 0.15
- Activity [8]: Active
